The text below walks through data of patent US10391068B2 (priority 2012, dated 2019).

Where “and” joins values, the source holds several entries; their conditions need not be identical. Identical values can stand only once. Entries after “also recorded” stand apart in the source; their conditions may differ. Like-named read-outs stand apart in the source and are kept apart here. Some results are limits rather than exact numbers.

One may read the Kd as a measure of binding affinity in units of concentration. For orientation: IC50 means the concentration at which inhibition is half-maximal. For orientation: koff means a measure of how fast the partners let go of each other. The kon is the rate constant with which the complex forms.

In one assay the target is human recombinant PrP^C (Homo sapiens, UniProt P04156). Briefly: biochemical. Format: binding.
The next assay deals with recombinant C-PrP (Mus musculus, UniProt P04925). Put plainly: biochemical. The format is binding.
For assay [1], the target named is T1, N-PrP (23-111) (Mus musculus, UniProt P04925). The format is binding.
For another assay, the target named is C-PrP (120-230) (Mus musculus, UniProt P04925). Format: binding.
The target of the next assay is recombinant mouse PrP^C (Mus musculus, UniProt P04925). Briefly: biochemical. The format is binding.
A further assay deals with BSA (Bos taurus, UniProt P02769). Format: binding.
In a further assay the target is myoglobin (Equus caballus, UniProt P68082). The format is binding.
Assay [2] addresses Recombinant C-PrP (residues 120-230) (Mus musculus, UniProt P04925). Format: binding.
The subject of assay [3] is Aβ oligomer inhibition of LTP in hippocampal slices. The format is cell-based, mice.
Assay [4] concerns the target Aβ oligomers binding to PrP^C (Mus musculus, UniProt P04925). Put plainly: biochemical.
Another assay addresses bovine serum albumin (Bos taurus, UniProt P02769). Briefly: biochemical.
Assay [5] deals with Aβ oligomers binding to PrP^C (Homo sapiens, UniProt P04156).
The test system of assay [6] is postnatal mouse hippocampal neurons treated with Aβ oligomers. Format: cell-based.
The target of assay [7] is T2, N-PrP / C-PrP interaction (Mus musculus, UniProt P04925). Format: biochemical.
In assay [8] the target is T3, moPrP (23-230) (Mus musculus, UniProt P04925).
Assay [9] is classed as binding. As to conditions: read-out: KD (did not bind detectably).
Assay [10] addresses T2, N-PrP / C-PrP interaction. The format is binding.
The next assay concerns the target PrP^23-230 (Mus musculus, UniProt P04925). The format is binding.
The subject of assay [11] is moPrP (23-230). The format is binding, mouse.
The target of assay [12] is Aβ oligomers binding to N-PrP (Mus musculus, UniProt P04925).
Assay [13] deals with T3, moPrP (23-230). The format is biochemical.
Assay [14] has as its target T1, N-PrP (23-111). The format is biochemical.
The test system of assay [15] is Aβ oligomer binding to PrP-expressing HEK cells. Format: cell-based.

myoglobin, sequence (P68082 2-154): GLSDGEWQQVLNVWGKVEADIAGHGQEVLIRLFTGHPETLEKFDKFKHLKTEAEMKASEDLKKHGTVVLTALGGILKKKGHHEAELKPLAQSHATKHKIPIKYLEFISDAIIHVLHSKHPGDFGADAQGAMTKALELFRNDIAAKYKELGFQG
bovine serum albumin, sequence (P02769 25-607): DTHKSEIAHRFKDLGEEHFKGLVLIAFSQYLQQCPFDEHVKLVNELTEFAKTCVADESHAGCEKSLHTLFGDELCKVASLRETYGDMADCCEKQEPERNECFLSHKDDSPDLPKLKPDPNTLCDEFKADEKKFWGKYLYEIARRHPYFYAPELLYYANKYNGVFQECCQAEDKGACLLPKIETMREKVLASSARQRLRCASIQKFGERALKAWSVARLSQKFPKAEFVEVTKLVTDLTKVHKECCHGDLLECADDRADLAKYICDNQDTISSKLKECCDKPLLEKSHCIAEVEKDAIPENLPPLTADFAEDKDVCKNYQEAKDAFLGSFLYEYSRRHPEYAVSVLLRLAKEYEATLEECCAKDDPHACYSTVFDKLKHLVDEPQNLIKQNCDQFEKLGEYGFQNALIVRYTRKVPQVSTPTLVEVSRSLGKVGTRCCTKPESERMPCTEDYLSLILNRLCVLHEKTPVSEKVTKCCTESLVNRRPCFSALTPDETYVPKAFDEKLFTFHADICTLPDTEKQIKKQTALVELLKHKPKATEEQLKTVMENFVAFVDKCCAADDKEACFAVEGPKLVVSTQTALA

Consider `OC[C@@H](O)[C@H](O)[C@@H](O)c1nnn[nH]1` [DS40, (1S,2R,3R)-1-(1H-tetrazol-5-yl)butane-1,2,3,4-tetrol], for which, at human recombinant PrP^C, the Kd turned out to be 0.801 µM and the “binding to human versus mouse PrP^C (in words)” value was “identical affinity”. Also, at recombinant C-PrP, the “competition with / displacement of DS104 (in words)” value (from here on “competition with / displacement”) is on record as “able to displace DS104; also recorded: competed with DS104”. Also, the “binding to N-PrP (in words)” value on N-PrP (23-111) [1] is on record as “failed to bind”. For the same compound, the “binding to C-PrP (in words)” value at C-PrP (120-230) is recorded as “bound”. On recombinant mouse PrP^C, the “binding to PrP^C by SPR (in words)” value is reported as “lower affinity; also recorded: bind to PrP^C” and the “rate of dissociation (Koff) from PrP^C (in words)” value is on record as “particularly slow rate of dissociation”.
On to `O=C1OC(C(O)C(O)CO)C(O)C1O` (stereo not drawn) [DS86, 3R,4S-dihydroxy-5S-(1,2,3-trihydroxypropyl)dihydrofuran-2(3H)-one], for which, at recombinant mouse PrP^C, the “binding to PrP^C by SPR (in words)” value is given as “lower affinity; also recorded: also bind to PrP^C”.
For `O=C(O)c1cc(NC(=S)NN=C2C(O)C(O)C(O)C(O)C2O)ccc1-c1c2ccc(=O)cc-2oc2cc(O)ccc12` [DS104, (Z)—N-(3′,6′-dihydroxy-3-oxo-3H-spiro[isobenzofuran-1,9′-xanthen]-5-yl)-2-((2R,3R,4S,5R,6S)-2,3,4,5,6-pentahydroxycyclohexylidene)hydrazinecarbothioamide], at BSA, the “binding to BSA by FP” value is recorded as “not detected”. For the same compound, on myoglobin, the “binding to myoglobin by FP” value is recorded as “not detected”. For the same compound, in assay [2], the Kd came to 4 µM.
As to `NC(=S)NN=C1C(O)C(O)C(O)C(O)C1O` [DS26, 2-(2R,3S,5R,6S-pentahydroxycyclohexylidene)hydrazinecarbothioamide], in assay [3], the “LTP after Aβ oligomer exposure (in words)” value was “significantly reversed the inhibitory effect of Aβ oligomers on LTP; also recorded: significantly (*p<0.05) enhances LTP after Aβ exposure” and the “LTP with compound alone (in words)” value is “No change in LTP was detected”. For the same compound, in assay [4], the IC50 is roughly 15 µM, the “inhibition of Aβ oligomer binding to PrP^C by SPR (in words)” value is on record as “inhibited binding of Aβ oligomers to PrP^C in a dose-dependent fashion; also recorded: decreased the binding of Aβ oligomers to PrP^C in a dose-dependent manner; also recorded: prevents binding of Aβ oligomers” and the “reduction of the Aβ oligomer-PrP^C interaction” value is “more than 90%”. The compound further had a Kd on bovine serum albumin greater than 1000 µM. The “release of Aβ oligomers pre-bound to PrP^C (in words)” value in [5] was “unable to release Aβ that was already attached to PrP^C; also recorded: unable to dislodge Aβ oligomers”. At human recombinant PrP^C, the Kd was 0.571 µM and the “binding to human versus mouse PrP^C (in words)” value is recorded as “identical affinity”. Moreover, in [6], the “levels of synaptic markers after Aβ oligomers (in words)” value was “significantly rescued the levels of all the synaptic markers; also recorded: blocks the toxic effects of Aβ oligomers” and the “levels of synaptic markers with compound alone (in words)” value is listed as “not significantly altered”. Also, the “co-immunoprecipitation of C-PrP with N-PrP (in words)” value in [7] is given as “Co-immunoprecipitation of the two PrP fragments occurred only after incubation with DS26; also recorded: C-PrP was immunoprecipitated with N-PrP only in the presence of DS26”. The “far-UV CD spectrum of PrP^C (in words)” value on moPrP (23-230) [8] is “did not detectably alter the CD spectrum of PrP^C; also recorded: does not affect the far-UV CD spectrum”. In addition, on recombinant C-PrP, the Kd turned out to be 0.3 µM and the “competition with / displacement” value is recorded as “able to displace DS104; also recorded: competed with DS104”. Also, the Kd in assay [9] was greater than 1000 µM. Moreover, the “N-PrP binding to C-PrP by SPR (in words)” value in assay [10] is on record as “N-PrP interacted with C-PrP only after pre-injection of DS26; also recorded: N-PrP bound to C-PrP that had been pre-treated with DS26”. Also, on PrP^23-230, the “binding to PrP^C by EqD (in words)” value is on record as “retained by PrP^C in the sample chamber” and the “decrease in the concentration of compound in the assay chamber” value is 75%. In addition, the “binding to N-PrP (in words)” value at N-PrP (23-111) [1] was “failed to bind”. Also, the “binding to C-PrP (in words)” value at C-PrP (120-230) is on record as “bound; also recorded: binds”. Moreover, in the assay on moPrP (23-230) [11], the “difference in Tm versus PrP^C alone” value came out at 2.11 °C; the “melting temperature (Tm) of PrP in presence of compound” value is 68.93±0.1 °C and 68.9 °C. Besides, the “inhibition of Aβ oligomer binding to N-PrP (in words)” value in [12] was “failed to inhibit the binding of Aβ oligomers to N-PrP”. Also, on moPrP (23-230) [13], the “Trp fluorescence of full-length PrP (in words)” value is given as “dose-dependent quenching; also recorded: quenched the trp fluorescence in a dose-dependent manner”. Moreover, at N-PrP (23-111) [14], the “Trp fluorescence of N-PrP (in words)” value is reported as “unaffected; also recorded: did not alter the trp fluorescence”. In assay [15], the “estimated IC50 on cells (in words)” value was “higher than the corresponding value observed by SPR and ELISA”; the “inhibition of Aβ oligomer binding to PrP^C on cells (in words)” value was “dose-dependent inhibition of Aβ binding; also recorded: inhibits binding of Aβ oligomers to PrP^C on cells”. Besides, at recombinant mouse PrP^C, the “DS26 remained bound to PrP^C after washing” value was found to be 70%, the Kd was found to be 0.571 µM, the “binding to PrP^C by SPR (in words)” value is listed as “sub-micromolar affinity; also recorded: higher affinity; also recorded: stereospecific; also recorded: bound; also recorded: binds; also recorded: bind to PrP^C” and the koff amounted to 0.00014 s⁻¹. For the same compound, at recombinant mouse PrP^C, the association rate constant (kon) was 245 M⁻¹ s⁻¹ and the “rate of dissociation (Koff) from PrP^C (in words)” value is given as “particularly slow rate of dissociation; also recorded: remarkably slow dissociation kinetics”. Also, the residence time on recombinant mouse PrP^C (read-out: half-life for the bound state) was found to be 83 min. Moreover, the koff on recombinant mouse PrP^C (read-out: koff rate) worked out at 0.00014 s⁻¹. Further, the kon on recombinant mouse PrP^C (read-out: kon rate) was 245 M⁻¹ s⁻¹. Further, in the assay on PrP^Sc replication, the “PrP^Sc replication in vitro (in words)” value is reported as “partially inhibits”.
As for “2R,3S,4S,5S,6R)-2-(hydroxymethyl)-6-[β-hydroxyphenyl)amino]tetrahydro-2H-pyran-3,4,5-triol [DS5]”, on recombinant C-PrP, the “competition with / displacement” value is reported as “able to displace DS104; also recorded: competed with DS104”. Further, the “binding to PrP^C by SPR (in words)” value on recombinant mouse PrP^C was “lower affinity; also recorded: also bind to PrP^C”.
In the case of `O=C(CN1CCCC1)Nc1ccc(Cc2ccc(NC(=O)CN3CCCC3)cc2)cc1` [GN8, N,N′-(methylenedi-4,1-phenylene)bis[2-(1-pyrrolidinyl)acetamide], reference compound], in [4], the “inhibition of Aβ oligomer binding to PrP^C by SPR (in words)” value was “does not bind PrPC in the SPR assay used for studying the binding of PrPC ligands to PrPC or inhibit binding of Aβ oligomers to PrP^C”. For the same compound, the “binding to PrP^C by EqD (in words)” value on PrP^23-230 is listed as “No binding was observed; also recorded: failed to detect binding”. In addition, at recombinant mouse PrP^C, the Kd is greater than 1000 µM and the “binding to PrP^C by SPR (in words)” value was “does not bind; also recorded: no detectable binding; also recorded: failed to bind; also recorded: failed to detect binding”.
For `CC(C)(C)NC(=S)N/N=C1\[C@@H](O)[C@@H](O)[C@@H](O)[C@H](O)[C@H]1O` [DS210], on recombinant mouse PrP^C, the Kd amounted to 63.1 µM and the “binding to PrP^C by SPR (in words)” value was “bind to PrP^C”.
Consider `FC(F)(F)c1cccc(COn2c(-c3ccccc3)nc3ncccc32)c1` [DS15, reference compound], for which the “binding to PrP^C by EqD (in words)” value on PrP^23-230 is reported as “No binding was observed”. In addition, at moPrP (23-230) [13], the “Trp fluorescence of full-length PrP (in words)” value is “did not produce any change in Trp fluorescence; also recorded: did not alter the trp fluorescence”.
On to `O[C@@H]1[C@H](O)[C@H](O)/C(=N\NC(=S)NCc2ccc(F)cc2)[C@H](O)[C@H]1O` [DS211], for which, at recombinant mouse PrP^C, the Kd stood at 62.3 µM and the “binding to PrP^C by SPR (in words)” value was “bind to PrP^C”.
For `COc1ccc(CCNC(=S)N/N=C2\[C@@H](O)[C@@H](O)[C@@H](O)[C@H](O)[C@H]2O)cc1OC` [DS207] the same measures were 64.8 µM and “bind to PrP^C”.
